From patent publication US12590340B2, “Microfluidic plasmonic color reading chips and methods” (priority 2021, dated 2026)
In brackets after ≈: the same amount, converted by molar mass. Entries after “also recorded” stand apart in the source; their conditions may differ. Like-named read-outs stand apart in the source and are kept apart here.

Assays:
[1] = tested on: Ampicillin resistant Escherichia coli strain; assay: antibiotic susceptibility profiling by resazurin color change on the plasmonic microfluidic chip; type: cell-based; details: for increase in green value of the 1-hour incubated aliquots compared to the zero minute incubation aliquot: 100 μg/mL ampicillin, 37° C.; for constant green value throughout the 1-hour incubation: 50 μg/mL kanamycin
Protocol: Ampicillin resistant Escherichia coli strain (Amp resistant E. coli, #211540, Merlan scientific, Ontario, Canada) was cultured overnight at 37° C. in Luria broth (LB) media supplemented with 100 μg/mL Ampicillin (#216858, Merlan scientific, Ontario, Canada). Next, the bacterial concentration was determined by optical density technique using a Spectronic 21D spectrophotometer. Subsequently, aliquots of different concentrations were prepared for the antibiotic susceptibility testing experiments.
(§1) Resistant E. coli, MRSA, and Cipro. Resistant PA respectively was used. The aliquots were incubated at 37° C. for different periods of time starting from 0 minutes incubation to a 60 minutes with a time step of 5 minutes. For susceptible bacterial samples, aliquots of Amp resistant E. coli were prepared (5×10^5 CFU/mL, 10^3 CFU/mL, 10^2 CFU/mL, and 50 CFU/mL), MRSA (5×10^5 CFU/mL), and Cipro. Resistant PA (5×10^5 CFU/mL). […] Resistant E. coli, MRSA, and Cipro. Resistant PA respectively was used. The aliquots were incubated at 37° C. different periods starting from 0 minutes incubation till 60 minutes with a time step of 5 minutes.
(§2) To rapidly detect the sample color change on the platform the reflectance spectra was measured using a Lambda 750 UV/Vis/NIR Spectrophotometer (PerkinElmer). The incident and collected light beams had normal incidence to the platform. Further, optical imaging was performed under highly controlled environment using Nikon Eclipse LV150 (Nikon) with a ×100, 0.9 NA air objective and Nikon digital sight ds-fi1 CCD camera with a white reference of R:0.75 G:1.0 B:2.36.51.
(§3) The microfluidic chip used was similar to that illustrated in FIG. 1B, having two characteristic chambers 1) antibiotic infusing chamber (AI) 103 equipped with bacteria entrapping micropillars 104p; and 2) plasmonic color-sensitive chamber (PCS) 105. The operational procedure of the microfluidic chip was to inject the bacteria containing growth media along with an antibiotic of interest and 0.02% resazurin solution from the inlet to get mixed in the Al mixing and entrapment chamber. Microfluidic chips were incubated for one hour through time intervals of 5 minutes. After incubation, the liquid in the Al chamber 103 was pushed towards the PCS chamber 105 sensing chamber while the bacteria was entrapped behind the micropillars 104p.
To conveniently convert the microscopy results to the feasible CIE color gamut, each picture of the data set loaded to MATLAB was read as a 3 layer matrix, each pixel has 3 components, one per layer, corresponding to its R, G and B value. The processing involved image crop and a sample selection. A simple average calculation was run individually to get an overall value for R, G and B components for each of the 5 samples generated. Following that, the mean across the collection was calculated. The error bar was computed at 1 standard deviation.
All images were processed and analyzed through a MATLAB™ script which allowed the analysis of multiple images simultaneously. The TIFF files were loaded and cropped to 80% of their original dimensions to avoid the coffee-ring effect. An option for the manual crop was also available. For each image, five samples of 480×480 pixels were randomly selected. Subsequently, for each the R, G and B values were averaged followed by the calculation of the mean RGB value and error across them. Succeeding their conversion to XYZ and x, y color systems. The RGB values of each image with its corresponding error bar were plotted against time. Additionally, the x and y values were scattered on the CIE1931 color space to analyze the color change through time.

Amp. Resistant E. coli [2] = assay: antibiotic susceptibility study in spiked human urine on the chip; type: cell-based, Escherichia coli
Protocol: For the spiked human sample experiment, human urine was centrifuged at 5000 rcf for 5 minutes to remove large particles. It was subsequently spiked with 5×10^5 CFU/mL and mixed with a solution of resazurin to a final concentration of 0.02%. No antibiotics were added for the control aliquots, 100 μg/mL ampicillin was added for resistant aliquots and 50 μg/mL Kanamycin was added for susceptible aliquots. The aliquots were incubated at 37° C. different periods starting from 0 minutes incubation till 60 minutes with a time step of 5 minutes.
FIGS. 11A-11F show the results of an antibiotic susceptibility study conducted using human urine spiked with Amp. Resistant E. coli to a final concentration of 5×10^5 CFU/mL. The study utilized 3 aliquot sets of control (no antibiotic), resistant (100 μg/mL Ampicillin), and susceptible (50 μg/mL Kanamycin). […] The trend is highlighted with a white arrow on the 2D chromaticity diagram in FIG. 11B. […] are web plots of the red, green, and blue values analyzed from the bright-field microscopy of the sets. […] Green values increased overtime in the control and resistant sets (88 to 122 for resistant and 82 to 117 for control) showing the change towards green color and indicating the reduction of resazurin to resorufin by viable bacterial cells. […] Resistant E. coli.

Amp. Resistant E. coli [3] = assay: antibiotic susceptibility study in spiked whole blood on the chip; type: cell-based, Escherichia coli; details: 100, 50, 20 CFU/mL, 32 μg/mL Ampicilin, up to 150 minutes
Protocol: For the spiked human sample experiment, human whole blood was centrifuged in two steps first at 150 rcf for 10 minutes followed by 7000 rcf for 3 min. It was subsequently spiked with 100, 50 or 20 CFU/mL and mixed with a solution of resazurin to a final concentration of 0.01%. No antibiotics were added for the control aliquots, 32 μg/mL ampicillin was added for resistant aliquots and 16 μg/mL kanamycin was added for susceptible aliquots. The aliquots were incubated at 37° C. different periods starting from 0 minutes incubation till 150 minutes with a time step of 5 minutes.
FIGS. 12A-12B show the results of an antibiotic susceptibility study conducted using whole blood spiked with Amp. Resistant E. coli to a final concentration of 100, 50, 20 CFU/mL in the presence of 32 μg/mL Ampicilin. […] The mean Gvalue/Bvalue (a) can be a credible parameter to follow the sequence in the color change and translate it to a quantifiable data FIG. 12B. […] Quantifiably, the time in which the α-value undergoes a step levitation is corresponding to the time the color transition is visible to the naked eye.

MRSA [4] = assay: minimum inhibitory concentration (MIC) study with resazurin on the chip; details: for y-value: 60 minutes, 5×10^5 CFU/mL
MRSA [5] = assay: antibiotic susceptibility profiling by resazurin color change on the plasmonic microfluidic chip; type: cell-based, Staphylococcus aureus; details: 4 ug/mL Oxacillin, 5×10^5 CFU/mL; for color response over 1-hour incubation (resistant / susceptible): 1 ug/mL Ciprofloxacin
Protocol: as §1, §2
as §3, with “After incubation, the liquid in the Al chamber 103 was pushed towards the PCS chamber 105 sensing chamber while the bacteria was entrapped behind the micropillars 104p.” left out
(§4) To conveniently convert the microscopy results to the feasible CIE color gamut, each picture of the data set loaded to MATLAB was read as a 3 layer matrix, each pixel has 3 components, one per layer, corresponding to its R, G and B value. […] Following that, the mean across the collection was calculated. […]
(§5) All images were processed and analyzed through a MATLAB™ script which allowed the analysis of multiple images simultaneously. […]

MRSA [6] = assay: standard MIC assay using CLSI protocols; type: cell-based, Staphylococcus aureus; details: 96 well plate, overnight culture; 5×10^5 CFU/mL
Protocol: For the Clinical & Laboratory Standards Institute (CLSI) MIC protocol bacteria were streaked on LB agar overnight and resuspended in water aliquot. The aliquot was measured, and the bacteria concentration was adjusted to 10^6 CFU/mL in LB media. A 96 well plate with an antibiotic gradient from 128 μg/ml to 0.125 μg/ml in a 2-fold concentration dilution step was prepared with a positive control with no antibiotics. Next, the bacteria were introduced to each well of the 96 well plate for a final bacteria concentration of 5×10^5 CFU/mL. The well plates were cultured overnight.

Cipro. Resistant PA [7] = assay: antibiotic susceptibility profiling by resazurin color change on the plasmonic microfluidic chip; type: cell-based, Pseudomonas aeruginosa; details: 5×10^5 CFU/mL; 2 ug/mL Ciprofloxacin, 4 ug/mL Gentamicin
Protocol: as §1
To rapidly detect the sample color change on the platform the reflectance spectra was measured using a Lambda 750 UV/Vis/NIR Spectrophotometer (PerkinElmer). The incident and collected light beams had normal incidence to the platform. […]
as §4, §5

Cipro. Resistant PA [8] = details: 60 minutes, 5×10^5 CFU/mL
From the text: as §3

Amp resistant E. coli = assay: minimum inhibitory concentration (MIC) study with resazurin on the chip; details: for y-value: 60 minutes, 5×10^5 CFU/mL
[9] = 5×10^5 CFU/mL, 100 μg/mL Ampicillin, 50 μg/mL Kanamycin

Molecule: CC1(C)S[C@@H]2[C@H](NC(=O)[C@H](N)c3ccccc3)C(=O)N2[C@H]1C(=O)O [Ampicillin]
- increase of y values (2D chromaticity diagram) over 1-hour incubation, control and resistant aliquots ([1]; 100 μg/mL Ampicillin, 5×10^5 CFU/mL): 0.19 to 0.33
- increase in green value of the 1-hour incubated aliquots compared to the zero minute incubation aliquot ([1]; 5×10^5 CFU/mL): 194%
- increase in green value of the 1-hour incubated aliquots compared to the zero minute incubation aliquot ([1]; 10^2 CFU/mL): 142%
- increase in green value of the 1-hour incubated aliquots compared to the zero minute incubation aliquot ([1]; 10^3 CFU/mL): 140%
- increase in green value of the 1-hour incubated aliquots compared to the zero minute incubation aliquot ([1]; 50 CFU/mL): 131%
- color response over 1-hour incubation (resistant / susceptible) [1, 9]: color change from initial dark blue to green; also recorded: color-change from navy blue to green
- increase of green values over time (resistant set) (Amp. Resistant E. coli [2]; 100 μg/mL Ampicillin, 1-hour incubation): 88 to 122
- increase in the y-value over time (resistant aliquots) (Amp. Resistant E. coli [2]; 100 μg/mL Ampicillin, 5×10^5 CFU/mL, 1-hour incubation): 0.22 to 0.34
- color response over 1-hour incubation (Amp. Resistant E. coli [2]; [9]): color change trend from dark blue at zero-minute incubation towards cyan; also recorded: color-change from navy blue to green
- color response (Amp. Resistant E. coli [3]): color change trend from dark blue at zero-minute incubation towards cyan

Molecule: Cc1onc(-c2ccccc2)c1C(=O)N[C@@H]1C(=O)N2[C@@H]1SC(C)(C)[C@@H]2C(=O)O [Oxacillin]
- inhibition of MRSA metabolism (color change from purple to cyan) (MRSA [4]; 16 μg/mL Oxacillin dose): not enough to fully inhibit
- y-value (MRSA [4]; 16 μg/mL Oxacillin): 0.3
- y-value (MRSA [4]; 32 μg/mL Oxacillin): 0.125
- y-value (MRSA [4]; 64 μg/mL Oxacillin): 0.13
- MIC (MRSA [4]; Staphylococcus aureus, MRSA, 1 h, read-out: minimum inhibitory concentration (MIC)): 32 µg/mL (≈ 79.7 µM)
- category according to the CLSI breakpoints (MRSA [4]; from MIC): resistant
- increase of y values (2D chromaticity diagram) over 1-hour incubation, control and resistant aliquots (MRSA [5]): 0.16 to 0.33
- color response over 1-hour incubation (resistant / susceptible) (MRSA [5]): color change from initial dark blue to green; also recorded: resistant
- MIC by standard MIC assay using CLSI protocols, compared with chip MIC (MRSA [6]): confirmed the obtained MIC

Molecule: Gentamicin
- color response over 1-hour incubation (resistant / susceptible) (Cipro. Resistant PA [7]): constant dark blue color; also recorded: susceptible

Molecule: O=C(O)c1cn(C2CC2)c2cc(N3CCNCC3)c(F)cc2c1=O [Ciprofloxacin]
- y-value (Cipro. Resistant PA [8]; 8 μg/mL Ciprofloxacin): 0.38
- y-value (Cipro. Resistant PA [8]; 16 μg/mL Ciprofloxacin): 0.125
- y-value (Cipro. Resistant PA [8]; 32 μg/mL Ciprofloxacin): 0.175
- color response over 1-hour incubation (resistant / susceptible) (Cipro. Resistant PA [7]): color change from initial dark blue to green; also recorded: resistant
- color response over 1-hour incubation (resistant / susceptible) (MRSA [5]): constant dark blue color; also recorded: susceptible

Molecule: NC[C@H]1O[C@H](O[C@H]2[C@H](O)[C@@H](O[C@H]3O[C@H](CO)[C@@H](O)[C@H](N)[C@H]3O)[C@H](N)C[C@@H]2N)[C@H](O)[C@@H](O)[C@@H]1O [Kanamycin]
- constant green value throughout the 1-hour incubation ([1]; 5×10^5 CFU/mL): 49.26±5.32
- constant green value throughout the 1-hour incubation ([1]; 10^2 CFU/mL): 47.28±1.93
- constant green value throughout the 1-hour incubation ([1]; 10^3 CFU/mL): 48.12±3.21
- constant green value throughout the 1-hour incubation ([1]; 50 CFU/mL): 46.15±2.56
- constant blue value throughout the 1-hour incubation (Amp. Resistant E. coli [2]; 50 μg/mL Kanamycin): 138.7±5.3
- constant green value throughout the 1-hour incubation (Amp. Resistant E. coli [2]; 50 μg/mL Kanamycin): 76.8±4.5
- constant red value throughout the 1-hour incubation (Amp. Resistant E. coli [2]; 50 μg/mL Kanamycin): 56.6±4.7
- y-value, constant (susceptible set) (Amp. Resistant E. coli [2]; 50 μg/mL Kanamycin, 5×10^5 CFU/mL, 1-hour incubation): 0.205±0.025
- y-value (Amp resistant E. coli; 4 μg/mL kanamycin): 0.3
- y-value (Amp resistant E. coli; 8 μg/mL kanamycin): 0.125
- y-value (Amp resistant E. coli; 16 μg/mL kanamycin): 0.175
- MIC (Amp resistant E. coli; Escherichia coli, 1 h, read-out: minimum inhibitory concentration (MIC)): 8 µg/mL (≈ 16.5 µM)
